Test results taken from ChEMBL document CHEMBL1201862, “PubChem BioAssay data set” (2004).
Active and inactive are the calls of the source.

What was measured:
[1] = molecular target: Ion channel NompC (Danio rerio, UniProt Q7T1G6); experiment: Dose response cell-based high-throughput screening assay for agonists of the transient receptor potential channel N1 (TRPN1). [Related pubchem assays (depositor defined):AID1424, AID1448]; assay type: functional
[2] = molecular target: Multidrug resistance protein CDR2 (Candida albicans (strain SC5314 / ATCC MYA-2876) (Yeast), UniProt P78595); experiment: inhibition of Nile Red efflux via Candida CDR2 – S. cerevisiae AD1-8u, singleplex, Cherry Pick1 hits, dose response (AID 588604); assay type: functional
[3] = molecular target: T1, Mucolipin-3 (Homo sapiens, UniProt Q8TDD5); experiment: Fluorescence counterscreen assay for […] agonists: dose response cell-based high-throughput screening assay to identify agonists of the transient receptor potential channel ML3 (TRPML3). [Related pubchem assays: 1424, 1448 ]; assay type: functional
T1 sequence (Q8TDD5 whole entry): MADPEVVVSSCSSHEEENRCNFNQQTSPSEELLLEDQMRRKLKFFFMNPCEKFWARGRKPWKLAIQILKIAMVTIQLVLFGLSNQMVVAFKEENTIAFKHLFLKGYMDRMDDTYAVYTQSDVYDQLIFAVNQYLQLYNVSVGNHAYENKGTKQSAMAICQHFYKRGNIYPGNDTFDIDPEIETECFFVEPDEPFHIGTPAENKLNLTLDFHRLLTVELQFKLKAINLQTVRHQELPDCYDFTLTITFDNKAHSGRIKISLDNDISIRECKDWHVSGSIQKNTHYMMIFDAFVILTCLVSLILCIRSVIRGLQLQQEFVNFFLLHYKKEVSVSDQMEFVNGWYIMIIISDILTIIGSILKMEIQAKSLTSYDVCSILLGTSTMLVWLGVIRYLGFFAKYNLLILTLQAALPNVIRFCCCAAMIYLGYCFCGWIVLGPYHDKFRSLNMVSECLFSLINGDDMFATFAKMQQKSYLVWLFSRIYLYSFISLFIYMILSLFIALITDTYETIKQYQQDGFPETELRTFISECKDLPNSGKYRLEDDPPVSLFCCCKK

[4] = molecular target: Troponin, cardiac muscle (Homo sapiens, UniProt P19429+P45379+P63316); experiment: Fluorescence-based biochemical high throughput dose response assay for activators of the calcium sensitivity of cardiac Regulated Thin Filaments (RTF). [Related pubchem assays (depositor defined):AID493008, AID493018, AID504382, AID504383]; assay type: protein-complex assay
[5] = THP-1 cell cytotoxicity, dose response, cytotoxicity control, set 3 (AID 504852); assay type: functional; details: Mycobacterium tuberculosis
[6] = THP-1 cell cytotoxicity, cytotoxicity control, set 4 (AID 504911); assay type: functional; details: Mycobacterium tuberculosis
[7] = Vero cell cytotoxicity, dose response, cytotoxicity control for M. tuberculosis growth inhibitor project, Vero cells, purified and synthesized compounds, set 4 (AID 504854); assay type: functional; details: Mycobacterium tuberculosis
[8] = molecular target: Cell division cycle 7-related protein kinase (Homo sapiens, UniProt O00311); assay type: functional;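 further: value obtained from a kinome-wide kinase panel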
Sequence of Cell division cycle 7-related protein kinase (O00311 whole entry): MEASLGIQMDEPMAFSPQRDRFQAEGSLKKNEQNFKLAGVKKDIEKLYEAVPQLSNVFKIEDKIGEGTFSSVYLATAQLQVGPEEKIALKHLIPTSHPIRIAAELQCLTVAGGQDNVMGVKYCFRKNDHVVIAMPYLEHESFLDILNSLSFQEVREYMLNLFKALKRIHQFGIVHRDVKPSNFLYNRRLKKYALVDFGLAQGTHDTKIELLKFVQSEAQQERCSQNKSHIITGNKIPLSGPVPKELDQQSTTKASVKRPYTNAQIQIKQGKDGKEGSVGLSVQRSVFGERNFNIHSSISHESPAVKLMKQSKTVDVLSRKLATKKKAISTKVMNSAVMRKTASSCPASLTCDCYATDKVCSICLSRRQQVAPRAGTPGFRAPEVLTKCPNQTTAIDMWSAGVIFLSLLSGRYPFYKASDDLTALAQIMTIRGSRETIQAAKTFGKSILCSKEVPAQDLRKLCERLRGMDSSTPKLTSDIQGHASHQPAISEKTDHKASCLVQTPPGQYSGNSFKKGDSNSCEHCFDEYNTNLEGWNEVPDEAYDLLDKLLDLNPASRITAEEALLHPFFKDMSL

[9] = molecular target: G protein-coupled receptor kinase 5 (Homo sapiens, UniProt P34947); experiment: Navigating the Kinome. Panel member name: GPRK5; assay type: functional
Sequence of G protein-coupled receptor kinase 5 (P34947 whole entry): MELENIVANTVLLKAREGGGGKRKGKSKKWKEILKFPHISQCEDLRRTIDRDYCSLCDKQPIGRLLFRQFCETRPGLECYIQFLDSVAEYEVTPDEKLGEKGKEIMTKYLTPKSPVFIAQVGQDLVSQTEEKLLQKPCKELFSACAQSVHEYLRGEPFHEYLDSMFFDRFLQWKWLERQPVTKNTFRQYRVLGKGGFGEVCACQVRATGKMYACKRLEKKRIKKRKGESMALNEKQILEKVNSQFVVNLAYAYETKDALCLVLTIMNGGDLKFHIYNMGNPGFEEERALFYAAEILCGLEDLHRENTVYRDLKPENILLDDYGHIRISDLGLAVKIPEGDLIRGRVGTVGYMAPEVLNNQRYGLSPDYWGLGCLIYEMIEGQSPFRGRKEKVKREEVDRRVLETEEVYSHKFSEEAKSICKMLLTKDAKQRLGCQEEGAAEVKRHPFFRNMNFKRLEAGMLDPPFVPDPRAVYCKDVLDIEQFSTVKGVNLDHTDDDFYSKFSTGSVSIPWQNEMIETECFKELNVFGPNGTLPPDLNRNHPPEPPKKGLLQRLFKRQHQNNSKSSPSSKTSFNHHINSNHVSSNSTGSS

[10] = molecular target: Cyclin-dependent kinase 9 (Homo sapiens, UniProt P50750); assay type: functional;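 further: value from the CDK9 entry of a kinome-spanning kinase panel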
Sequence of Cyclin-dependent kinase 9 (P50750 whole entry): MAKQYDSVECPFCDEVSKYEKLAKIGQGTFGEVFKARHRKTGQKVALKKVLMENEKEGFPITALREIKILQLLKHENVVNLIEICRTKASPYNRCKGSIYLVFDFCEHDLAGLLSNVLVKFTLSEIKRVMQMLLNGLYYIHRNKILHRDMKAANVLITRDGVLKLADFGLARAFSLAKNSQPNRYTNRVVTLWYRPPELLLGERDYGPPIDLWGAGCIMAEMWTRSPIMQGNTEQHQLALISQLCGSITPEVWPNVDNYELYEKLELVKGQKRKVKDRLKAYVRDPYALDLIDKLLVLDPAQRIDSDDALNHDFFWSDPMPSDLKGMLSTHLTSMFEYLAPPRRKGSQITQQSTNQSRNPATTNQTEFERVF

[11] = molecular target: cAMP-dependent protein kinase catalytic subunit PRKX (Homo sapiens, UniProt P51817); assay type: functional
Sequence of cAMP-dependent protein kinase catalytic subunit PRKX (P51817 whole entry): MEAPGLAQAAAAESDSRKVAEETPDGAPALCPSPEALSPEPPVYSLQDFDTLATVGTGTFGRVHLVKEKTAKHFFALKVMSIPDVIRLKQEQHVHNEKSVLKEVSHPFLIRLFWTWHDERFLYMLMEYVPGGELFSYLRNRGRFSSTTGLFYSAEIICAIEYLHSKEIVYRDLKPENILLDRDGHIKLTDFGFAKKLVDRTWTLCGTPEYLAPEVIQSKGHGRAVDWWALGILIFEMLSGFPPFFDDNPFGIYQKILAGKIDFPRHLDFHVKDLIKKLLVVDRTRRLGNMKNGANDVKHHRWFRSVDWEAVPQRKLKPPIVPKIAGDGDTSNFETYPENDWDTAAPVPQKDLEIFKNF

[12] = molecular target: Leucine-rich repeat serine/threonine-protein kinase 2 (Homo sapiens, UniProt Q5S007); assay type: functional;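 further: value from a broad kinome-wide panel profiling study in which LRRK2 was one of the kinases tested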
[13] = molecular target: Dual specificity protein kinase CLK4 (Homo sapiens, UniProt Q9HAZ1); assay type: functional
[14] = molecular target: Serine/threonine-protein kinase Chk1 (Homo sapiens, UniProt O14757); assay type: functional;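 further: measured as one member of a kinome-wide kinase profiling panel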
[15] = molecular target: Hepatocyte growth factor receptor (Homo sapiens, UniProt P08581); assay type: functional;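 further: kinase panel profiling across the kinome, with MET as the panel member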
[16] = molecular target: Leukocyte tyrosine kinase receptor (Homo sapiens, UniProt P29376); experiment: Navigating the Kinome. Panel member name: LTK; assay type: functional
Sequence of Leukocyte tyrosine kinase receptor (P29376 whole entry): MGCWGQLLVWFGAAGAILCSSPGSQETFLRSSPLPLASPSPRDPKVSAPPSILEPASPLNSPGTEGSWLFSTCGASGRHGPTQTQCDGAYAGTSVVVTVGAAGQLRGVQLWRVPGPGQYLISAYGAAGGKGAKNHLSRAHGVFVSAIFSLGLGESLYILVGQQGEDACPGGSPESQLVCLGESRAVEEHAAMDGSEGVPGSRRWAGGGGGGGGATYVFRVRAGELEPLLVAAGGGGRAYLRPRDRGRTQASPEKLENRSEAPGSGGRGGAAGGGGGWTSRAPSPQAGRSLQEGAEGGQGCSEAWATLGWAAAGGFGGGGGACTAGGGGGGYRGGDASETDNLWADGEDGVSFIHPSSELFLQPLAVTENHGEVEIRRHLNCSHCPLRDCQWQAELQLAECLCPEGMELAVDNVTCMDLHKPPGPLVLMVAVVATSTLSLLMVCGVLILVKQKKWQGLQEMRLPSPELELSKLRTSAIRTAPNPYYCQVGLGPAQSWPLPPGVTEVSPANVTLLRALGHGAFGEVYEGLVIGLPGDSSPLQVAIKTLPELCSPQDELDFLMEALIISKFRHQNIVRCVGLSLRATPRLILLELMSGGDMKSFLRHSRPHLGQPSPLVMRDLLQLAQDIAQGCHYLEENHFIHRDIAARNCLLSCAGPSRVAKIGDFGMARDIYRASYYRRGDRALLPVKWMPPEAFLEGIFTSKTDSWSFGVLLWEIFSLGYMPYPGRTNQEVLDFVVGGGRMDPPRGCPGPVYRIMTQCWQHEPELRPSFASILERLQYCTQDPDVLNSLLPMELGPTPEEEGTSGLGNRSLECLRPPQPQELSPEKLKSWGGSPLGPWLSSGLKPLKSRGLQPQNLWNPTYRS

[17] = molecular target: T2, High affinity choline transporter 1 (Homo sapiens, UniProt Q9GZV3); experiment: human choline transporter potentiators, potency – cell-based, 10-point CRC, membrane potential dye, dose response (AID 602376); assay type: functional
T2 sequence (Q9GZV3 whole entry): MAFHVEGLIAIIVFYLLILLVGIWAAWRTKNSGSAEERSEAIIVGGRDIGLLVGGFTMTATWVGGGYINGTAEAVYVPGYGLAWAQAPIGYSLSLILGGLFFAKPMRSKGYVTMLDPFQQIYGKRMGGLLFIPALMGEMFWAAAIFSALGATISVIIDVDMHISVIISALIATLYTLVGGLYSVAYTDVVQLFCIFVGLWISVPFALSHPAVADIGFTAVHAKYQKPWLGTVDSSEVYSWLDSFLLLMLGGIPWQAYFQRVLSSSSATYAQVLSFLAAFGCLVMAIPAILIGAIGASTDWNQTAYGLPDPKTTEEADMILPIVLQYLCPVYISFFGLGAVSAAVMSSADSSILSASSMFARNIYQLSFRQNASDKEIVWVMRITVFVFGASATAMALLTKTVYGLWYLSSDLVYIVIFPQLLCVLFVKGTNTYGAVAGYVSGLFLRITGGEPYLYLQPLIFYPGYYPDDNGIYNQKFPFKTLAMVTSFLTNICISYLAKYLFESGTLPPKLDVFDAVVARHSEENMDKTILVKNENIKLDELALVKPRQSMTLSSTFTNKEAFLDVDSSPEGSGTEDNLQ

[18] = molecular target: Neuropeptides B/W receptor type 1 (Homo sapiens, UniProt P48145); experiment: human NPBW1 receptor blockade, IC50 – cell-based, fluorescence, dose response, set 5, late-stage follow-up (AID 588566); assay type: functional
[19] = molecular target: Melanin-concentrating hormone receptor 1 (Homo sapiens, UniProt Q99705); experiment: Late-stage fluorescence-based counterscreen for antagonists of the G-protein coupled receptor 7 (GPR7): cell-based dose response assay to identify antagonists of the melanin-concentrating hormone receptor 1 (MCHR1) Set 5.; assay type: functional
[20] = molecular target: Glycogen synthase kinase-3 beta (Homo sapiens, UniProt P49841); experiment: inhibition of human GSK3B activity – biochemical, microfluidics, dry powder samples, set 2, dose response (AID 623989); assay type: functional
[21] = molecular target: Melanocortin receptor 4 (Homo sapiens, UniProt P32245); experiment: inhibitors of MC4R cAMP signaling – cell-based, TR-FRET, biased antagonists, dose response (AID 602298); assay type: functional;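 further: antagonist potency against agonist-stimulated cAMP production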
[22] = cAMP pathway inhibition in counterscreen cell line – TR-FRET cAMP detection, counter-screen for MC4R biased antagonist project, dose response (AID 602305); assay type: functional, cell-based;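 further: U2OS cells stimulated with forskolin near its EC80 as the cAMP inducer; potency is for inhibition of forskolin-stimulated cAMP signaling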
[23] = molecular target: Aurora kinase B (Homo sapiens, UniProt Q96GD4); assay type: functional
Sequence of Aurora kinase B (Q96GD4 whole entry): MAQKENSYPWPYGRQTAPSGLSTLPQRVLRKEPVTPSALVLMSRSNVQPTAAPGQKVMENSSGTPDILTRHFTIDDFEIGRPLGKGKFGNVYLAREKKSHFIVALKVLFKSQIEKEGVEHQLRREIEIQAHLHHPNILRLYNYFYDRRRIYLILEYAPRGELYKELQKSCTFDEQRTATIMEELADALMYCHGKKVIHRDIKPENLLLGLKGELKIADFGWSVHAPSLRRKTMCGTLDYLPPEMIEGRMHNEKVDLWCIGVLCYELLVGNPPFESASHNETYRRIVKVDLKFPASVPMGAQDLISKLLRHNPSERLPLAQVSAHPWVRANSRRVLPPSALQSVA

[24] = molecular target: Aurora kinase A (Homo sapiens, UniProt O14965); assay type: functional;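 further: value from the Navigating the Kinome kinase panel profiling, panel entry STK6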
Sequence of Aurora kinase A (O14965 whole entry): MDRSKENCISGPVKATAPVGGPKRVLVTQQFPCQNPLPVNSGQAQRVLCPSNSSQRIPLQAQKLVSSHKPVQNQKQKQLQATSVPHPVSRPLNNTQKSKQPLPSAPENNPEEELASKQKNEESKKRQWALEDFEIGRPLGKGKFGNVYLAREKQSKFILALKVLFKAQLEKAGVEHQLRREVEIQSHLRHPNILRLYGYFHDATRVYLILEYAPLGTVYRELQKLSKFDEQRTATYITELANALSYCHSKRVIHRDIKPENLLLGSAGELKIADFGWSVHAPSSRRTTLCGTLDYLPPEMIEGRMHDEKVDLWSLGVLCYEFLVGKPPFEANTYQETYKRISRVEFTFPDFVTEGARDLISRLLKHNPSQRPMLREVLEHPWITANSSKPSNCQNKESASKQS

[25] = molecular target: Vascular endothelial growth factor receptor 2 (Homo sapiens, UniProt P35968); assay type: functional
Sequence of Vascular endothelial growth factor receptor 2 (P35968 whole entry): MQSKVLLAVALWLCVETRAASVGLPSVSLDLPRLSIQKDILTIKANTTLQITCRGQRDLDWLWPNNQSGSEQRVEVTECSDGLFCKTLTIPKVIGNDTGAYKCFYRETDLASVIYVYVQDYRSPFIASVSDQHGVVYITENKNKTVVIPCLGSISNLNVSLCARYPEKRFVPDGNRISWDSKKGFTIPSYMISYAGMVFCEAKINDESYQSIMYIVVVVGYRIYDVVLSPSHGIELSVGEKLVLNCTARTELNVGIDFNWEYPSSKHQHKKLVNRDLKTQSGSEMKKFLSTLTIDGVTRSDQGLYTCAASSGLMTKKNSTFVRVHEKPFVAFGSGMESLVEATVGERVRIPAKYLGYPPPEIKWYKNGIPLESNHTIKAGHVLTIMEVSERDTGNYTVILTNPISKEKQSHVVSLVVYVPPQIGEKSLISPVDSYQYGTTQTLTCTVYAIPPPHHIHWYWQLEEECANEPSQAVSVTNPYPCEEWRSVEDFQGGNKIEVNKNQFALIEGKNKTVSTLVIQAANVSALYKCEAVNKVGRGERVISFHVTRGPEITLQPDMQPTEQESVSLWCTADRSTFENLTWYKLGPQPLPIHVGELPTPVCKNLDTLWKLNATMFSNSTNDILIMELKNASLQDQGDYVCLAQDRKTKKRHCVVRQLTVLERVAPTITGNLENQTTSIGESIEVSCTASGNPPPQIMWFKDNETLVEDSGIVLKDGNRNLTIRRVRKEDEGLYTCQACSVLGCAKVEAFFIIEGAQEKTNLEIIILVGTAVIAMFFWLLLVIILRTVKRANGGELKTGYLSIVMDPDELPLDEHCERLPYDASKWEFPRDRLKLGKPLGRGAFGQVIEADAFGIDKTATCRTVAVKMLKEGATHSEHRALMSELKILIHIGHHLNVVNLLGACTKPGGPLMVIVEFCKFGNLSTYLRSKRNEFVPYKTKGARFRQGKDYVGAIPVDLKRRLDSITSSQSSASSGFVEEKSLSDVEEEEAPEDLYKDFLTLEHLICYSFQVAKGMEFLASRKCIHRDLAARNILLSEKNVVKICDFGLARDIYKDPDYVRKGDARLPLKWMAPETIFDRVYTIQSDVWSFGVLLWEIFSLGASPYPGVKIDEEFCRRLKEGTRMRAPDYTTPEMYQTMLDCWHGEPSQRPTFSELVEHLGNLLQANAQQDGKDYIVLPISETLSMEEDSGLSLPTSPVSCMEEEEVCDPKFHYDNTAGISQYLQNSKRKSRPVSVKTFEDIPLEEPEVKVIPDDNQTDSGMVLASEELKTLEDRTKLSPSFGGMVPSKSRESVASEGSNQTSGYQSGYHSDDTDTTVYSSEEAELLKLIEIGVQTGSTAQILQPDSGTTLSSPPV

[26] = molecular target: Tyrosine-protein kinase Lck (Homo sapiens, UniProt P06239); assay type: functional;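 further: lck was assayed as one member of a kinase panel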
[27] = FACS-based assay to assess parasite growth inhibition 48 hr Measured in Cell-Based System Using Flow Cytometry - 2126-03_Inhibitor_Dose_DryPowder_Activity. [Related pubchem assays (depositor defined):AID488774]; assay type: functional; details: Homo sapiens
[28] = A cell-based HTS for delayed death inhibitors of the malarial parasite plastid Measured in Microorganism System Using Plate Reader - 2126-01_Inhibitor_Dose_DryPowder_Activity.; assay type: functional, organism-based
[29] = test system: Erythrocyte; experiment: FACS-based assay to assess parasite growth inhibition 96 hr Measured in Cell-Based System Using Flow Cytometry - 2126-05_Inhibitor_Dose_DryPowder_Activity. [Related pubchem assays (depositor defined):AID488774]; assay type: functional; details: Homo sapiens
[30] = A cell-based HTS for delayed death inhibitors of the malarial parasite plastid Measured in Microorganism System Using Plate Reader - 2126-02_Inhibitor_Dose_DryPowder_Activity.; assay type: functional, organism-based

## C=CCn1c(=O)[nH]c2nc3cc(/N=C/N(C)C)c(C)cc3nc2c1=O
[1]
  EC50: 3.27 µM (active)
[2]
  EC50: 1.62 µM (active)
[3]
  EC50: 5.89 µM (active)
[4]
  EC50: 1.86 µM (active)

## CNC(=O)CSc1nc2ccccc2c(=O)[nH]1
[5]
  CC50: > 100 µM (active)
[6]
  CC50: > 100 µM (active)
[7]
  CC50: > 100 µM (active)

## CC(C)(C)c1cnc(CSc2cnc(NC(=O)C3CCNCC3)s2)o1 [BMS-387032]
[8]
  Ki: > 3.98 µM (inactive)
[9]
  Ki: > 3.98 µM (inactive)

## Cc1csc2nc(N)nn12
[10]
  Ki: 50.1 µM (active)
[11]
  Ki: 79.4 µM (active)
[12]
  Ki: 39.8 µM (active)
[13]
  Ki: 31.6 µM (active)
[14]
  Ki: 31.6 µM (active)
[15]
  Ki: 79.4 µM (active)
[16]
  Ki: 79.4 µM (active)

## CC(C)COP(=O)(OCC(C)C)C(Nc1ccccc1)c1ccc(F)cc1 (stereo not given)
[17]
  EC50: 12.2 µM (active)

## CCOc1ccc(Oc2c(Cl)c(N3CCCCC3)nn(Cc3cccc4ccccc34)c2=O)cc1
[18]
  IC50: > 20 µM (inactive)
[19]
  IC50: > 20 µM (inactive)

## Cc1ccc(S(=O)(=O)N2CCN(CC(=O)N/N=C/c3ccccn3)CC2)cc1
[20]
  AC50: 13.7 µM (active)

## CN(C(=O)COC(=O)CNC(=O)c1ccc(Cl)cc1Cl)c1ccccc1
[21]
  IC50: > 64.6 µM (inactive)
[22]
  IC50: > 64.6 µM (inactive)

## Cc1ccc(-c2nc3ccc(Br)cc3c(C(=O)O)c2CC(=O)O)cc1C
[23]
  Ki: 0.126 µM (active)
[24]
  Ki: 0.0631 µM (active)

## O=C(Nc1cccc(-c2nc3sccn3c2-c2ccnc(Nc3ccccc3Cl)n2)c1)c1ccccc1
[25]
  Ki: 0.794 µM (active)
[26]
  Ki: 3.98 µM (active)

## Cc1noc(C)c1NC(=O)Nc1ccc2c(c1)C(=O)N([C@@H](C)CO)C[C@@H](C)[C@H](CN(C)S(=O)(=O)c1ccc(F)cc1)OCCCC[C@H](C)O2
[27]
  AC50: 0.609 µM (active)
[28]
  AC50: 0.697 µM (active)
[29]
  AC50: 0.697 µM (active)
[30]
  AC50: 0.57 µM (active)
